Measurements as given in ChEMBL document CHEMBL1177769, “Reducing ion channel activity in a series of 4-heterocyclic arylamide FMS inhibitors” (Bioorg Med Chem Lett, 2010).

What was measured:
Format in all cases: ADME, organism-based
Details in all cases: in vivo
[1] = Cmax in rat at 0.5 mg/kg, iv and 5 mg/kg, po
[2] = Volume of distribution in rat at 0.5 mg/kg, iv and 5 mg/kg, po
[3] = Bioavailability in rat at 0.5 mg/kg, iv and 5 mg/kg, po
Rattus norvegicus = experiment: Liver blood flow in rat at 0.5 mg/kg, iv and 5 mg/kg, po

## CN1CC(c2ccc(NC(=O)c3nc(C#N)c[nH]3)c(C3=CCCCC3)c2)CN(C)S1(=O)=O
[1]
  Cmax: 839 ng/mL
[2]
  Vd: 0.564 L/kg
[3]
  bioavailability: 15%
Rattus norvegicus
  LBF: 55 mL/min/kg
